Measured values published in the kinase profiling compilation of Christmann-Franck et al. (2016).

Tests used:
Test in all cases: radiometric filter-binding kinase assay
[1] = test system: AKT1 (human), P31749 [S473D]
[2] = target: AURKA (human) (UniProt O14965)
[3] = target: BRSK2 (human) (UniProt Q8IWQ3)
[4] = target: CHEK2 (human) (UniProt O96017)
[5] = target: CaMK1 (human) (UniProt Q14012)
[6] = target: DYRK1A (human) (UniProt Q13627)
[7] = target: DYRK2 (human) (UniProt Q92630)
[8] = target: EPHB2 (human) (UniProt P29323)
[9] = target: EPHB3 (human) (UniProt P54753)
[10] = target: ERBB4 (human) (UniProt Q15303)
[11] = target: HIPK2 (human) (UniProt Q9H2X6)
[12] = target: IKBKE (human) (UniProt Q14164)
[13] = target: MAP2K6 (human) (UniProt P52564)
[14] = target: MAP3K11 (human) (UniProt Q16584)
[15] = target: MAPK1 (human) (UniProt P28482); details: compound 10.0 µM
[16] = target: MAPK10 (human) (UniProt P53779)
[17] = target: MAPK12 (human) (UniProt P53778)
[18] = target: MAPK13 (human) (UniProt O15264)
[19] = target: MAPK3 (human) (UniProt P27361)
[20] = target: MAPK8 (human) (UniProt P45983)
[21] = target: MAPKAPK3 (human) (UniProt Q16644)
[22] = target: MARK2 (human) (UniProt Q7KZI7)
[23] = target: MKNK1 (human) (UniProt Q9BUB5)
[24] = target: MST4 (human) (UniProt Q9P289)
[25] = target: NEK2 (human) (UniProt P51955)
[26] = target: NUAK1 (human) (UniProt O60285)
[27] = target: PAK4 (human) (UniProt O96013)
[28] = target: PAK7 (human) (UniProt Q9P286)
[29] = target: PLK1 (human) (UniProt P53350)
[30] = test system: PRKAA1 or PRKAA2 (rat); details: accession and sequence are those of the human protein
[31] = target: PRKACA (human) (UniProt P17612)
[32] = target: PRKCA (human) (UniProt P17252)
[33] = target: RPS6KA1 KD1 KD2 (human) (UniProt Q15418)
[34] = test system: SGK1 (human), O00141 [S422D]
[35] = target: SYK (human) (UniProt P43405)

Chain of MAPKAPK3 (human) (Q16644 whole entry, looked up): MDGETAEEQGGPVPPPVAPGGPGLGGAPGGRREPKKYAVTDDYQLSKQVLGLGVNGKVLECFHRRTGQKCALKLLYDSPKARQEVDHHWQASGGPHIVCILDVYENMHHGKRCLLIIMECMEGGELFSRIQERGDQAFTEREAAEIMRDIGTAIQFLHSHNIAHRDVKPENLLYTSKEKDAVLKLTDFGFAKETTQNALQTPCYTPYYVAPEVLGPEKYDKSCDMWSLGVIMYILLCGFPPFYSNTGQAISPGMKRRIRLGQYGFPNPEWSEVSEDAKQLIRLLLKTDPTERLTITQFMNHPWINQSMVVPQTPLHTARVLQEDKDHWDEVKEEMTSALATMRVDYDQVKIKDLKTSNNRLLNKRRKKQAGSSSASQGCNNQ
Chain of MAPK8 (human) (P45983 whole entry, looked up): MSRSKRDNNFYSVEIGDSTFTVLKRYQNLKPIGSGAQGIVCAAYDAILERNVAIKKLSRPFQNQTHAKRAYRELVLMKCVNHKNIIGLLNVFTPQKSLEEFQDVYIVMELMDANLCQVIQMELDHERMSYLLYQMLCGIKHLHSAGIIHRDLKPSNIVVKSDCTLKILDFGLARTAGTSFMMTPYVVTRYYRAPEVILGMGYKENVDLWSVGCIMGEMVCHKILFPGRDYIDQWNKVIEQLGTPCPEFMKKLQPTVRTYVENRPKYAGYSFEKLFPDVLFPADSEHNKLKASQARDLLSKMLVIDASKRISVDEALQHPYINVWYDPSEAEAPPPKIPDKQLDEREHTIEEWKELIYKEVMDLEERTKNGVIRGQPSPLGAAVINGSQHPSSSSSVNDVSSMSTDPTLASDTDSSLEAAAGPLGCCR
Chain of BRSK2 (human) (Q8IWQ3 whole entry, looked up): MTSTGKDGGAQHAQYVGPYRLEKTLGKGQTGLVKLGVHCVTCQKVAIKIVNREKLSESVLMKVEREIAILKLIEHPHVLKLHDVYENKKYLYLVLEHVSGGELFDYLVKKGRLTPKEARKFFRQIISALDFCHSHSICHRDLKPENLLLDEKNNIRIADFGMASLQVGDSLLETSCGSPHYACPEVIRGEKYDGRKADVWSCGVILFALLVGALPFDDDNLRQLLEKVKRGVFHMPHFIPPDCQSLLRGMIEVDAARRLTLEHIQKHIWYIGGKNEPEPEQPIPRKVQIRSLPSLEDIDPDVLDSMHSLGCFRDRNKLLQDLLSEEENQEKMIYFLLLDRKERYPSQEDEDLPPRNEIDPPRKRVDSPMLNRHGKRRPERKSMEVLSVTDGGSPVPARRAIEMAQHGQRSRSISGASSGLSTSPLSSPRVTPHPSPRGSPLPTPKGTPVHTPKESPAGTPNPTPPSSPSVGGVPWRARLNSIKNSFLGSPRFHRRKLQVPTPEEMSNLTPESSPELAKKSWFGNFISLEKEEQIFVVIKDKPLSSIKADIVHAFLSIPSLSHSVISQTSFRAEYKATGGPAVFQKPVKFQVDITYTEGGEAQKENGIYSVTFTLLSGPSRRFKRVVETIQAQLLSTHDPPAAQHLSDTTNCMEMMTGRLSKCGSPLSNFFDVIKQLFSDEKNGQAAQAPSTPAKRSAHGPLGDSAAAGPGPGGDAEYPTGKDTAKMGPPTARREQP
Chain of ERBB4 (human) (Q15303 whole entry, looked up): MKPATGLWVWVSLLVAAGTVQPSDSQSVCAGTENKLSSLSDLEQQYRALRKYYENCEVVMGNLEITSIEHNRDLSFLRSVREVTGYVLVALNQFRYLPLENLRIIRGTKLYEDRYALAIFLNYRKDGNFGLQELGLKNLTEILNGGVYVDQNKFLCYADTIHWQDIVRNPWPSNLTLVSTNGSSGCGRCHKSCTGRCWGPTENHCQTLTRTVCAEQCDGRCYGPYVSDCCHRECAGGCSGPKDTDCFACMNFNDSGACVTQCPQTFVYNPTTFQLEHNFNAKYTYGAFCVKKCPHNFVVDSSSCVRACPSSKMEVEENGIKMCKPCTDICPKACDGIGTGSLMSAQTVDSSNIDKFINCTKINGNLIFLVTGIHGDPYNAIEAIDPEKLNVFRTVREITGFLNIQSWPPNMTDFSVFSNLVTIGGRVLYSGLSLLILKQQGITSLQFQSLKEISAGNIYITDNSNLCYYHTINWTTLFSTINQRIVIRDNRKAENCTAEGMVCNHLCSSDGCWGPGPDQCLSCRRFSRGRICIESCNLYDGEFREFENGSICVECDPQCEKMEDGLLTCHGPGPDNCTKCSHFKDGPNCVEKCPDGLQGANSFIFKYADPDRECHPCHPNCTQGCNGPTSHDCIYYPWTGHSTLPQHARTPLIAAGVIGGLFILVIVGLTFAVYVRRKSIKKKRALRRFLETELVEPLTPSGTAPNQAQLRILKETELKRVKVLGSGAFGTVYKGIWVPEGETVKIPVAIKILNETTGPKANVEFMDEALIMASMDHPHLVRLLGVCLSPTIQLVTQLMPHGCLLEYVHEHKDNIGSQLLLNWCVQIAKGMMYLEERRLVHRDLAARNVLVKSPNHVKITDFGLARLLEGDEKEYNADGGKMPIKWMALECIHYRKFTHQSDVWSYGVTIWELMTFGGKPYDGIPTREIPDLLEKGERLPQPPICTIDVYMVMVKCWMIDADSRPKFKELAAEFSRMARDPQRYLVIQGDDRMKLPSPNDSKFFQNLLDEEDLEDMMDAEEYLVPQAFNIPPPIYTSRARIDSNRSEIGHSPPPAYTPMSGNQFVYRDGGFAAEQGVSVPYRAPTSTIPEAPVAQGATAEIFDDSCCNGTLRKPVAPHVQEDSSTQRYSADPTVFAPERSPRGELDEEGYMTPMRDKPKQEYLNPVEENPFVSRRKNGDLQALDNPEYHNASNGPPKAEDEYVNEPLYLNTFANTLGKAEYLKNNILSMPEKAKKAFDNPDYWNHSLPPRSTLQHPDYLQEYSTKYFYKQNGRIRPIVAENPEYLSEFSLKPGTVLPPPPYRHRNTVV
Chain of NUAK1 (human) (O60285 whole entry, looked up): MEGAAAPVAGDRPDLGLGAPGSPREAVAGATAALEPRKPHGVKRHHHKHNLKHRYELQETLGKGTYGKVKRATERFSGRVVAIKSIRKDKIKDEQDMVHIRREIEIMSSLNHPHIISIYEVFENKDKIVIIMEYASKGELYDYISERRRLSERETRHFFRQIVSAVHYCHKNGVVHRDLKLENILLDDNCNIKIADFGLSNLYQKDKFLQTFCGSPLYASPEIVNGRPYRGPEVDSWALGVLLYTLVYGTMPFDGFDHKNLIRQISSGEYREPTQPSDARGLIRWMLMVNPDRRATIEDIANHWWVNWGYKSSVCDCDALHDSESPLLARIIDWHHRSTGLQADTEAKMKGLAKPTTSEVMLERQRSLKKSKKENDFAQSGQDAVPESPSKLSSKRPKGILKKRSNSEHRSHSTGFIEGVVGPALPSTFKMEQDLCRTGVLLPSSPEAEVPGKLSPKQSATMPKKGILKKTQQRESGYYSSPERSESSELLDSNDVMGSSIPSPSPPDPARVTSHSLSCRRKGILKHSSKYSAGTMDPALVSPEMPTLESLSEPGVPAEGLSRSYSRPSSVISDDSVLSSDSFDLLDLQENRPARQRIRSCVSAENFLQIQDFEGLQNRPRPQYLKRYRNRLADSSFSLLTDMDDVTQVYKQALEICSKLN
Chain of MAPK13 (human) (O15264 whole entry, looked up): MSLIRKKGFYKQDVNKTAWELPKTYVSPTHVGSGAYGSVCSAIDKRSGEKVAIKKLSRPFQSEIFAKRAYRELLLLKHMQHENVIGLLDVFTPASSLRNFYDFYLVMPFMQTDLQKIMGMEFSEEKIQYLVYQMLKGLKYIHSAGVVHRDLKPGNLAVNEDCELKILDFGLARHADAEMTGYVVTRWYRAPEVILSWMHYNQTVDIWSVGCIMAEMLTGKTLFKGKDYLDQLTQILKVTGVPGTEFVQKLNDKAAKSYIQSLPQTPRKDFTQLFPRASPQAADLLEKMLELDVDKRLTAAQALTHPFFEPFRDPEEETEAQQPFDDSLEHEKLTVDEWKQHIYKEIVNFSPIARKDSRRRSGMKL
Chain of MAPK10 (human) (P53779 whole entry, looked up): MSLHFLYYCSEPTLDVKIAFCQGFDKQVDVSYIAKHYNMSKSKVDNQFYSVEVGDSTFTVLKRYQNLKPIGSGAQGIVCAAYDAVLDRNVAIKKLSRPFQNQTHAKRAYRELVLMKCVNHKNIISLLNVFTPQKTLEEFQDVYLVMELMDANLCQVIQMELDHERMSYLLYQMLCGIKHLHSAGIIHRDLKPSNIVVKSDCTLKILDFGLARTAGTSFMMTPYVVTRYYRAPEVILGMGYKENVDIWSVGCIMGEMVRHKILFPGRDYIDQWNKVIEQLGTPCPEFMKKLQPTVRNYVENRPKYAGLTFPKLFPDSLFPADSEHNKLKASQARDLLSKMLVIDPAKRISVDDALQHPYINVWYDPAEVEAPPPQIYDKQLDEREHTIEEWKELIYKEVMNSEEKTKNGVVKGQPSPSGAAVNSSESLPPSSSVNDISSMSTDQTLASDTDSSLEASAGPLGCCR

With CC1=C(CO)C(=O)O[C@@H]([C@@H](C)[C@H]2CC[C@H]3[C@@H]4C[C@H]5O[C@]56[C@@H](O)C=CC(=O)[C@]6(C)C4CC[C@]23C)C1 (some centres undefined) the residual activity ([1]; compound 0.1 µM) was 118%, the residual activity ([1]; compound 1.0 µM) was 99% and the residual activity ([1]; compound 10.0 µM) was 105%. The residual activity ([2]; compound 0.1 µM) was 108%, the residual activity ([2]; compound 1.0 µM) was 102% and the residual activity ([2]; compound 10.0 µM) was 30%. It also gave a residual activity ([3]; compound 0.1 µM) of 99%, a residual activity ([3]; compound 1.0 µM) of 103% and a residual activity ([3]; compound 10.0 µM) of 77%. For the same molecule, the residual activity ([4]; compound 0.1 µM) was 130%, the residual activity ([4]; compound 1.0 µM) was 116% and the residual activity ([4]; compound 10.0 µM) was 61%. For the same molecule, the residual activity ([5]; compound 0.1 µM) was 92%, the residual activity ([5]; compound 1.0 µM) was 84% and the residual activity ([5]; compound 10.0 µM) was 30%. It also gave a residual activity ([6]; compound 0.1 µM) of 92%, a residual activity ([6]; compound 1.0 µM) of 94% and a residual activity ([6]; compound 10.0 µM) of 100%. It also gave a residual activity ([7]; compound 0.1 µM) of 97%, a residual activity ([7]; compound 1.0 µM) of 88% and a residual activity ([7]; compound 10.0 µM) of 104%. The residual activity ([8]; compound 0.1 µM) was 116%, the residual activity ([8]; compound 1.0 µM) was 102% and the residual activity ([8]; compound 10.0 µM) was 105%. It also gave a residual activity ([9]; compound 0.1 µM) of 114%, a residual activity ([9]; compound 1.0 µM) of 104% and a residual activity ([9]; compound 10.0 µM) of 97%. For the same molecule, the residual activity ([10]; compound 0.1 µM) was 113%, the residual activity ([10]; compound 1.0 µM) was 109% and the residual activity ([10]; compound 10.0 µM) was 101%. The residual activity ([11]; compound 0.1 µM) was 108%, the residual activity ([11]; compound 1.0 µM) was 113% and the residual activity ([11]; compound 10.0 µM) was 60%. It also gave a residual activity ([12]; compound 0.1 µM) of 96%, a residual activity ([12]; compound 1.0 µM) of 97% and a residual activity ([12]; compound 10.0 µM) of 61%. For the same molecule, the residual activity ([13]; compound 0.1 µM) was 95%, the residual activity ([13]; compound 10.0 µM) was 109% and the residual activity ([14]; compound 0.1 µM) was 110%. The residual activity ([14]; compound 1.0 µM) was 110%, the residual activity ([14]; compound 10.0 µM) was 97% and the residual activity [15] was 111%. It also gave a residual activity ([16]; compound 0.1 µM) of 122%, a residual activity ([16]; compound 1.0 µM) of 125% and a residual activity ([16]; compound 10.0 µM) of 136%. For the same molecule, the residual activity ([17]; compound 0.1 µM) was 114%, the residual activity ([17]; compound 1.0 µM) was 116% and the residual activity ([17]; compound 10.0 µM) was 103%. It also gave a residual activity ([18]; compound 0.1 µM) of 106%, a residual activity ([18]; compound 1.0 µM) of 110% and a residual activity ([18]; compound 10.0 µM) of 92%. The residual activity ([19]; compound 0.1 µM) was 99%, the residual activity ([19]; compound 1.0 µM) was 100% and the residual activity ([19]; compound 10.0 µM) was 109%. It also gave a residual activity ([20]; compound 0.1 µM) of 103%, a residual activity ([20]; compound 1.0 µM) of 102% and a residual activity ([20]; compound 10.0 µM) of 110%. It also gave a residual activity ([21]; compound 0.1 µM) of 120%, a residual activity ([21]; compound 1.0 µM) of 85% and a residual activity ([21]; compound 10.0 µM) of 47%. It also gave a residual activity ([22]; compound 0.1 µM) of 109%, a residual activity ([22]; compound 1.0 µM) of 111% and a residual activity ([22]; compound 10.0 µM) of 118%. The residual activity ([23]; compound 0.1 µM) was 98%, the residual activity ([23]; compound 1.0 µM) was 100% and the residual activity ([23]; compound 10.0 µM) was 108%. It also gave a residual activity ([24]; compound 0.1 µM) of 97%, a residual activity ([24]; compound 1.0 µM) of 95% and a residual activity ([25]; compound 0.1 µM) of 93%. It also gave a residual activity ([25]; compound 1.0 µM) of 94%, a residual activity ([25]; compound 10.0 µM) of 82% and a residual activity ([26]; compound 0.1 µM) of 112%. For the same molecule, the residual activity ([26]; compound 1.0 µM) was 121%, the residual activity ([26]; compound 10.0 µM) was 110% and the residual activity ([27]; compound 0.1 µM) was 94%. The residual activity ([27]; compound 1.0 µM) was 104%, the residual activity ([27]; compound 10.0 µM) was 104% and the residual activity ([28]; compound 0.1 µM) was 102%. It also gave a residual activity ([28]; compound 1.0 µM) of 116%, a residual activity ([28]; compound 10.0 µM) of 111% and a residual activity ([29]; compound 0.1 µM) of 105%. For the same molecule, the residual activity ([29]; compound 1.0 µM) was 101%, the residual activity ([29]; compound 10.0 µM) was 118% and the residual activity ([30]; compound 0.1 µM) was 99%. For the same molecule, the residual activity ([30]; compound 1.0 µM) was 100%, the residual activity ([30]; compound 10.0 µM) was 90% and the residual activity ([31]; compound 0.1 µM) was 112%. The residual activity ([31]; compound 1.0 µM) was 109%, the residual activity ([31]; compound 10.0 µM) was 113% and the residual activity ([32]; compound 0.1 µM) was 96%. The residual activity ([32]; compound 1.0 µM) was 111%, the residual activity ([32]; compound 10.0 µM) was 96% and the residual activity ([33]; compound 0.1 µM) was 109%. It also gave a residual activity ([33]; compound 1.0 µM) of 101%, a residual activity ([33]; compound 10.0 µM) of 105% and a residual activity ([34]; compound 0.1 µM) of 110%. The residual activity ([34]; compound 10.0 µM) was 103%, the residual activity ([35]; compound 1.0 µM) was 115% and the residual activity ([35]; compound 10.0 µM) was 130%.
